Measurements as given in publication PMC8719067 (Haematologica, 2021).

Key:
[1] = tested on: B-cell lines or primary CLL cells; details: cited from earlier work
[2] = tested on: MEC-1 cells with either wild-type or mutant BTK; assay: reverse-phase protein array; details: RPPA
MEC-1 cells [3] = assay: cell cycle profile; format: cell-based; details: MEC-1, 24 hours
[4] = tested on: chronic lymphocytic leukemia; details: patients with CLL, median of 3.4 years of follow-up; cited from earlier work
[5] = tested on: MEC-1 cells overexpressing BTKWT; assay: reverse-phase protein array; details: RPPA; for decrease in phospho-ERK: BTKWT cells
MEC-1 cells [6] = assay: cell death; format: cell-based; details: MEC-1, 1, 24 hours
[7] = tested on: PLCg2 phosphorylation in Ramos Burkitt lymphoma cells; assay: phospho-PLCg2 inhibition in the Ramos cell line; format: cell-based; details: Homo sapiens, read-out: IC50 of inhibition of PLCg2 phosphorylation
[8] = tested on: BCR pathway in primary CLL cells; assay: immunoblot of BCR pathway proteins in primary CLL cells; format: cell-based, human; details: BTKWT and BTKT474F (gate-keeper mutation)
B-cell malignancies = details: phase 1b clinical trial; cited from earlier work

SMILES | cell death induced in vitro [1] | decrease in PD1 levels (ibrutinib vs vecabrutinib) [2] | cell cycle profiles (MEC-1 cells [3]) | cumulative incidence of progression [4] [%] | decrease in phospho-ERK [5] [log] | cell death (MEC-1 cells [6]) | S727 phosphorylation on STAT3 ([2]; WT and mutant cell lines) | Y705 phosphorylation on STAT3 ([2]; WT and mutant cell lines) | phospho-S6K ([2]; all three cell types, compared to ibrutinib) | cleaved caspase 7 ([2]; all transduced cell lines) | IC50 [7] [nM] | BCR pathway (phosphorylation of BTK, ERK, and S6) signaling [8] | responses for all proteins compared to those to ibrutinib ([5]; WT cells) | tolerability (B-cell malignancies)
CC#CC(=O)N1CCC[C@H]1c1nc(-c2ccc(C(=O)Nc3ccccn3)cc2)c2c(N)nccn12 [acalabrutinib] | limited | – | – | – | – | – | – | – | – | – | – | – | – | –
C=CC(=O)N1CCC[C@@H](n2nc(-c3ccc(Oc4ccccc4)cc3)c3c(N)ncnc32)C1 [ibrutinib, reference compound] | limited | larger decrease | did not alter | 19 | 2 | 15-20% | – | – | – | – | – | – | – | –
NC(=O)[C@H]1CCN(c2ncnc(N)c2F)C[C@@H]1N1CCC[C@@H](Nc2cc(Cl)cc(C(F)(F)F)c2)C1=O [vecabrutinib] | – | – | did not alter | – | 2 | 15-20% | decreased | decreased | profoundly decreased | increased | 13 ± 6 | inhibited | deeper or similar responses | well-tolerated
